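Cultured in 96-well plates, cells were exposed to test compound for 48 hours across five concentrations. TGI: total growth inhibition.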
Tests used:
Assay in all cases: NCI-60 cell line screen, 48 h
786-0 renal = test system: 786-0 renal
A498 renal = test system: A498 renal
A549 NSCLC = test system: A549 NSCLC
ACHN renal = test system: ACHN renal
BT-549 breast = test system: BT-549 breast
CAKI-1 renal = test system: CAKI-1 renal
CCRF-CEM leukemia = test system: CCRF-CEM leukemia
COLO 205 colon = test system: COLO 205 colon
DU-145 prostate = test system: DU-145 prostate
EKVX NSCLC = test system: EKVX NSCLC
HCC-2998 colon = test system: HCC-2998 colon
HCT-116 colon = test system: HCT-116 colon
HCT-15 colon = test system: HCT-15 colon
HL-60(TB) leukemia = test system: HL-60(TB) leukemia
HOP-62 NSCLC = test system: HOP-62 NSCLC
HOP-92 NSCLC = test system: HOP-92 NSCLC
HS 578T breast = test system: HS 578T breast
HT29 colon = test system: HT29 colon
IGROV1 ovarian = test system: IGROV1 ovarian
K-562 leukemia = test system: K-562 leukemia
KM12 colon = test system: KM12 colon
LOX IMVI melanoma = test system: LOX IMVI melanoma
M14 melanoma = test system: M14 melanoma
MALME-3M melanoma = test system: MALME-3M melanoma
MCF7 breast = test system: MCF7 breast
MDA-MB-231 breast = test system: MDA-MB-231 breast
MDA-MB-435 = test system: MDA-MB-435
MDA-N = test system: MDA-N
MOLT-4 leukemia = test system: MOLT-4 leukemia
NCI-H226 lung = test system: NCI-H226 lung
NCI-H23 lung = test system: NCI-H23 lung
NCI-H460 lung = test system: NCI-H460 lung
NCI-H522 lung = test system: NCI-H522 lung
NCI/ADR-RES ovarian = test system: NCI/ADR-RES ovarian
OVCAR-3 ovarian = test system: OVCAR-3 ovarian
OVCAR-4 ovarian = test system: OVCAR-4 ovarian
OVCAR-5 ovarian = test system: OVCAR-5 ovarian
OVCAR-8 ovarian = test system: OVCAR-8 ovarian
PC-3 prostate = test system: PC-3 prostate
RPMI-8226 leukemia = test system: RPMI-8226 leukemia
RXF 393 renal = test system: RXF 393 renal
SF-268 CNS = test system: SF-268 CNS
SF-295 CNS = test system: SF-295 CNS
SF-539 CNS = test system: SF-539 CNS
SK-MEL-2 melanoma = test system: SK-MEL-2 melanoma
SK-MEL-28 melanoma = test system: SK-MEL-28 melanoma
SK-MEL-5 melanoma = test system: SK-MEL-5 melanoma
SK-OV-3 ovarian = test system: SK-OV-3 ovarian
SN12C renal = test system: SN12C renal
SNB-19 CNS = test system: SNB-19 CNS
SNB-75 CNS = test system: SNB-75 CNS
SW-620 colon = test system: SW-620 colon
T-47D breast = test system: T-47D breast
TK-10 renal = test system: TK-10 renal
U251 CNS = test system: U251 CNS
UACC-257 melanoma = test system: UACC-257 melanoma
UACC-62 melanoma = test system: UACC-62 melanoma
UO-31 renal = test system: UO-31 renal

SMILES: Nc1nc(Cl)c(N)c(NCC2(CO)CC(Cc3ccccc3)C2)n1 (stereo not given)
- TGI (786-0 renal): > 100 µM
- TGI (A498 renal): > 78.5 µM
- TGI (A549 NSCLC): > 100 µM
- TGI (ACHN renal): > 100 µM
- TGI (BT-549 breast): > 100 µM
- TGI (CAKI-1 renal): > 100 µM
- TGI (CCRF-CEM leukemia): > 100 µM
- TGI (COLO 205 colon): > 100 µM
- TGI (DU-145 prostate): > 100 µM
- TGI (EKVX NSCLC): > 100 µM
- TGI (HCC-2998 colon): > 100 µM
- TGI (HCT-116 colon): > 100 µM
- TGI (HCT-15 colon): > 100 µM
- TGI (HL-60(TB) leukemia): 17.3 µM
- TGI (HOP-62 NSCLC): > 100 µM
- TGI (HOP-92 NSCLC): > 100 µM
- TGI (HS 578T breast): > 100 µM
- TGI (HT29 colon): > 100 µM
- TGI (IGROV1 ovarian): > 100 µM
- TGI (K-562 leukemia): > 94.3 µM
- TGI (KM12 colon): > 100 µM
- TGI (LOX IMVI melanoma): > 100 µM
- TGI (M14 melanoma): > 100 µM
- TGI (MALME-3M melanoma): > 100 µM
- TGI (MCF7 breast): > 69.2 µM
- TGI (MDA-MB-231 breast): > 100 µM
- TGI (MDA-MB-435): 60 µM
- TGI (MDA-N): > 100 µM
- TGI (MOLT-4 leukemia): > 78.8 µM
- TGI (NCI-H226 lung): > 100 µM
- TGI (NCI-H23 lung): > 100 µM
- TGI (NCI-H460 lung): > 100 µM
- TGI (NCI-H522 lung): > 100 µM
- TGI (NCI/ADR-RES ovarian): > 100 µM
- TGI (OVCAR-3 ovarian): > 100 µM
- TGI (OVCAR-4 ovarian): > 100 µM
- TGI (OVCAR-5 ovarian): > 100 µM
- TGI (OVCAR-8 ovarian): > 100 µM
- TGI (PC-3 prostate): > 100 µM
- TGI (RPMI-8226 leukemia): > 78.8 µM
- TGI (RXF 393 renal): > 100 µM
- TGI (SF-268 CNS): > 100 µM
- TGI (SF-295 CNS): > 100 µM
- TGI (SF-539 CNS): > 100 µM
- TGI (SK-MEL-2 melanoma): > 100 µM
- TGI (SK-MEL-28 melanoma): > 100 µM
- TGI (SK-MEL-5 melanoma): 18.5 µM
- TGI (SK-OV-3 ovarian): > 100 µM
- TGI (SN12C renal): > 100 µM
- TGI (SNB-19 CNS): > 100 µM
- TGI (SNB-75 CNS): > 100 µM
- TGI (SW-620 colon): > 100 µM
- TGI (T-47D breast): > 100 µM
- TGI (TK-10 renal): > 100 µM
- TGI (U251 CNS): > 56.7 µM
- TGI (UACC-257 melanoma): > 86.3 µM
- TGI (UACC-62 melanoma): > 100 µM
- TGI (UO-31 renal): > 100 µM

SMILES: Cc1cc(C)nc(NS(=O)(=O)c2ccc(NN=c3c4ccccc4n(C)c4ccccc34)cc2)n1
- TGI (786-0 renal): > 100 µM
- TGI (A549 NSCLC): > 100 µM
- TGI (ACHN renal): 77.4 µM
- TGI (BT-549 breast): > 100 µM
- TGI (CAKI-1 renal): > 100 µM
- TGI (CCRF-CEM leukemia): 77.6 µM
- TGI (COLO 205 colon): > 100 µM
- TGI (DU-145 prostate): > 100 µM
- TGI (EKVX NSCLC): 97.7 µM
- TGI (HCC-2998 colon): 89.8 µM
- TGI (HCT-116 colon): > 100 µM
- TGI (HCT-15 colon): > 100 µM
- TGI (HL-60(TB) leukemia): > 100 µM
- TGI (HOP-62 NSCLC): > 100 µM
- TGI (HOP-92 NSCLC): > 100 µM
- TGI (HS 578T breast): > 100 µM
- TGI (HT29 colon): > 100 µM
- TGI (IGROV1 ovarian): > 100 µM
- TGI (K-562 leukemia): 66.2 µM
- TGI (KM12 colon): > 100 µM
- TGI (LOX IMVI melanoma): 96.7 µM
- TGI (M14 melanoma): > 100 µM
- TGI (MALME-3M melanoma): 91.3 µM
- TGI (MCF7 breast): 55.7 µM
- TGI (MDA-MB-231 breast): > 100 µM
- TGI (MDA-MB-435): 69.1 µM
- TGI (MDA-N): 59.6 µM
- TGI (MOLT-4 leukemia): 79.6 µM
- TGI (NCI-H226 lung): > 100 µM
- TGI (NCI-H23 lung): > 100 µM
- TGI (NCI-H460 lung): > 100 µM
- TGI (NCI-H522 lung): 61.5 µM
- TGI (NCI/ADR-RES ovarian): > 100 µM
- TGI (OVCAR-3 ovarian): > 100 µM
- TGI (OVCAR-4 ovarian): 99.3 µM
- TGI (OVCAR-5 ovarian): > 100 µM
- TGI (OVCAR-8 ovarian): > 100 µM
- TGI (PC-3 prostate): > 100 µM
- TGI (RPMI-8226 leukemia): > 100 µM
- TGI (RXF 393 renal): 50.8 µM
- TGI (SF-268 CNS): > 100 µM
- TGI (SF-295 CNS): > 100 µM
- TGI (SF-539 CNS): > 100 µM
- TGI (SK-MEL-2 melanoma): 58.8 µM
- TGI (SK-MEL-28 melanoma): 67.7 µM
- TGI (SK-MEL-5 melanoma): 62.9 µM
- TGI (SK-OV-3 ovarian): > 100 µM
- TGI (SN12C renal): > 100 µM
- TGI (SNB-19 CNS): > 100 µM
- TGI (SNB-75 CNS): 96.9 µM
- TGI (SW-620 colon): > 100 µM
- TGI (T-47D breast): 80.8 µM
- TGI (TK-10 renal): > 100 µM
- TGI (U251 CNS): > 100 µM
- TGI (UACC-257 melanoma): > 100 µM
- TGI (UACC-62 melanoma): > 100 µM
- TGI (UO-31 renal): 71.7 µM
